Measurements reported in BindingDB's records for doi:10.7270/Q2B27SRF (Broad Institute, 2010).

Target: Serine/threonine-protein kinase 33 (Homo sapiens, UniProt Q9BYT3)
Assay: inhibition of STK33 phosphorylation of MBP – biochemical, luminescence, cell-free, retest, dose response (AID 2821)

Serine/threonine-protein kinase 33, sequence (Q9BYT3 whole entry): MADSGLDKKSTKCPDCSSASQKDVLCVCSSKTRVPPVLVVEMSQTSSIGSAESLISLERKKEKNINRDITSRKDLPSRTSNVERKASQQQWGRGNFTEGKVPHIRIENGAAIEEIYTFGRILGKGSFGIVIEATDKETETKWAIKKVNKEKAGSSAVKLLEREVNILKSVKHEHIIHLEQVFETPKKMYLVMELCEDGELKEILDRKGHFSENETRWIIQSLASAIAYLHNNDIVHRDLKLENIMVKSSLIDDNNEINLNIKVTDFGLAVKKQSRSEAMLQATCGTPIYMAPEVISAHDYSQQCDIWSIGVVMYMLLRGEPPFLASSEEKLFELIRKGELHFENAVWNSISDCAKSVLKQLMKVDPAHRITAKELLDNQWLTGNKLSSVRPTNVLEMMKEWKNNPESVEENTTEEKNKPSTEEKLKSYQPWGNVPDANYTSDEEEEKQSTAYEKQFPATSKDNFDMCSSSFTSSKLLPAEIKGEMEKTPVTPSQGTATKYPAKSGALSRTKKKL

SMILES	EC50 [µM]
S=C(Nc1cccnc1)Nc1cccc2cnccc12 [SMR000348842]	> 120
O=C(Nc1nc2ccccc2[nH]1)c1ccc(Br)o1 [SMR000352903]	10.1
CCN(CC)C(=O)c1ccc(NC(=O)Nc2ccccc2F)cc1 [SMR000376874]	> 120
NC(=O)NN=Cc1c(O)ccc2oc3c(c12)CCCC3 [SMR000414386]	1.24
COc1cc(C2c3sc(=O)[nH]c3Sc3c2c(O)n(-c2ccc(C)cc2)c3O)ccc1O (centres undefined) [SMR000414898]	> 120
Nc1ccc(N=Nc2ccccc2O)c(N)c1 [SMR000476341]	16.1
Nc1nc(-c2cc(O)ccc2[N+](=O)[O-])cc(-c2ccccc2)c1[N+](=O)[O-] [SMR000504332]	< 0.1
Oc1ccc(C=Nn2c(-c3ccccc3)n[nH]c2=S)cc1 [SMR000513437]	25.8
COc1ccc(CNc2nc3ccccc3s2)cc1OC [SMR000523783]	> 120
CC(C)(C)c1[nH]nc2c1C(=O)c1ccccc1-2 [SMR000528110]	25
CN1CCN(c2nc(-c3ccccc3O)nc3ccccc23)CC1 [SMR000539302]	42.8
CN(C)/C=C/C(=O)c1ccc2noc(-c3ccccc3)c2c1 [SMR000549693]	15.9
COC(=O)c1ccc(COc2ccccc2/C=C/C(=O)c2ccc(OCC(=O)O)cc2)cc1 [SMR000590970]	1.86
COc1ccc(C(=O)ON=C(N)c2ccccn2)cc1 [SMR000608101]	40.4
CC(Oc1ccc2c(c1)c1ccnc3c4ccccc4c(=O)n2c13)C(=O)NCCN1CCOCC1 (centres undefined) [SMR000652046]	0.416
O=C(Nc1cc(C(=O)Nc2ccccc2C(=O)O)cc(C(=O)Nc2ccccc2C(=O)O)c1)c1ccccc1 [SMR000658665]	> 120
CCCCCCCCCCCCCCCC[N+](C)(C)CCN(Cc1ccc(OC)cc1)c1ncccn1 [SMR001233380]	35.8
COc1cccc(C(=O)ON=C(N)c2ccccn2)c1 [The compound has not trivial name.]	22.7
Cc1ccc(NC(=O)c2cccc(C(=O)Nc3ccc(C)cc3C(=O)O)c2)c(C(=O)O)c1 [The compound has not trivial name.]	21.8
O=C(Nc1ccccc1C(=O)O)c1cccc(C(=O)Nc2ccccc2C(=O)O)c1 [The compound has not trivial name.]	59.6
CCCCCCCCCC[N+](C)(C)CC/C=C1/c2ccccc2Sc2ccc(Cl)cc21 [[(3Z)-3-(2-chloro-9-thioxanthenylidene)propyl]-decyl-dimethylammonium;bromide]	> 120
CCCCCCCCCCOC(=O)Cn1c(COc2ccc(Cl)cc2)[n+](C)c2ccccc21 [decyl 2-[2-[(4-chloranylphenoxy)methyl]-3-methyl-benzimidazol-3-ium-1-yl]ethanoate;chloride]	> 120
COc1cc(C=CC(=O)CC(=O)C=Cc2ccc(O)cc2)ccc1O [demethoxycurcumin]	1.75
COC(=O)c1cc(NC(=O)C2COc3ccccc3O2)cc(C(=O)OC)c1 (centres undefined) [dimethyl 5-(2,3-dihydro-1,4-benzodioxin-3-ylcarbonylamino)benzene-1,3-dicarboxylate]	> 120
